Data from patent US20240049723A1, “PLANT GROWTH REGULATOR OR METHOD FOR PROMOTING PLANT GROWTH” (Kureha Corporation, priority 2021, published 2024).

Columns and labels:
Format in all cases: in vivo
[1] = tested on: Arabidopsis thaliana (Col-0); assay: Evaluation Example 2: seed yield of Arabidopsis thaliana, C-EGT-DCH; details: EGT concentration 0.1 mM; harvested 87th day after seeding
Protocol: (§1) One individual Arabidopsis thaliana (Col-0) was sown in a plastic pot having a diameter of 60 mm and a height of 55 mm. Plastic deep dishes each having a diameter of 160 mm and a height of 28 mm were prepared, and six pots were respectively placed therein. As soil, 45 mL of vermiculite, 22.5 mL of granular soil (Kumiai horticultural soil), and 22.5 mL of vermiculite were placed in the pot in this order.
(§2) In a growth chamber set at room temperature of 22° C., the light period was 16 hours and the dark period was 8 hours. The light conditions were set such that the light intensity was 5000 lx in the central part under irradiation with the fluorescent lamp. Water supply was conducted from the bottom, and the water level was set at about 5 mm. Chemical treatment was started […]. More specifically, on the 8th, 10th, 12th, and 14th days after seeding, 50 mL of the plant growth regulator was added instead of water supply.
As the plant growth regulator, the hot water extraction product of Dirkmeia churashimaensis (C-EGT-DCH) prepared in Production Example 1 was used. Furthermore, for comparison, a plant growth regulator formed from 0.1 mM of ergothioneine aqueous solution was used.
On the 87th day after seeding, seeds were harvested, and the seed yield was evaluated.

[2] = tested on: Arabidopsis thaliana (Col-0); assay: Evaluation Example 6: Arabidopsis thaliana treated with Pseudozyma siamensis extracts from various extraction methods; details: EGT concentration 0.1 mM
Protocol: as §1, §2
(§3) As the plant growth regulator, various extracts of Pseudozyma siamensis obtained in Production Example 2 were used. Furthermore, for comparison, a plant growth regulator formed from 0.1 mM of ergothioneine aqueous solution was used.
On the 95th day after seeding, seeds were harvested, and the seed yield was evaluated.

[3] = tested on: rapeseed; assay: Evaluation Example 3: plant height of rapeseed, petri dish; details: EGT concentration 1 mM; 7th day after seeding
Protocol: (§4) In a 9 cm petri dish on which filter paper was spread, 10 mL of the plant growth regulator was added. Ten seeds of wheat or rapeseed were sown per one petri dish. In a thermostatic chamber set at room temperature of 25° C., the light period was 16 hours and the dark period was 8 hours. The light conditions were set using a fluorescent lamp (PLANT FLEC, 40 W LED fluorescent lamp for plant growth, electric bulb color, available from Nippon Medical and Chemical Instruments Co., Ltd.) such that the light intensity was 5000 lx in the central part under irradiation with the fluorescent lamp.
(§5) As the plant growth regulator, the hot water extraction product prepared in Production Example 1 was used. Furthermore, for comparison, a plant growth regulator formed from 1 mM of ergothioneine aqueous solution was used.
(§6) The plant height of the wheat or rapeseed on the 7th day after seeding was evaluated.

[4] = tested on: tomato (Micro Tom); assay: Evaluation Example 4: number of flowers of tomato; details: EGT concentration 0.1 mM; 64th day after seeding
Protocol: In a plastic pot having a square of 120 mm length and a height of 100 mm, 1 L of granular soil (Kumiai horticultural soil) was placed, and one individual tomato (Micro Tom) was sown in a pot.
(§7) In a thermostatic chamber set at room temperature of 25° C., the light period was 16 hours and the dark period was 8 hours. The light conditions were set using a fluorescent lamp (PLANT FLEC, 40 W LED fluorescent lamp for plant growth, electric bulb color, available from Nippon Medical and Chemical Instruments Co., Ltd.) such that the light intensity was 5000 lx in the central part under irradiation with the fluorescent lamp. Water supply was conducted from the bottom, and the water level was set at about 5 mm. Chemical treatment was started 4 weeks after seeding. More specifically, on the 25th, 27th, 29th, 31st, 33rd, 35th, and 37th days after seeding, 50 mL of the plant growth regulator was added instead of water supply.
(§8) As the plant growth regulator, the hot water extraction product of Pseudozyma siamensis (C-EGT-PSI) prepared in Production Example 1 was used. Furthermore, for comparison, a plant growth regulator formed from 0.1 mM of ergothioneine aqueous solution was used.
On the 64th day after seeding, the number of flowers was evaluated.

[5] = tested on: wheat; assay: Evaluation Example 3: plant height of wheat, petri dish; details: EGT concentration 1 mM; 7th day after seeding
Protocol: as §4, §5, §6

[6] = tested on: radish (Akamaru Hatsuka); assay: Evaluation Example 5: underground part weight of radish; details: EGT concentration 0.1 mM; 28th day after seeding
Protocol: In a plastic pot having a diameter of 100 mm and a height of 135 mm, 600 mL of granular soil (Kumiai horticultural soil) was placed, and one individual radish (Akamaru Hatsuka) was sown in a pot.
The radish was managed in a greenhouse set at room temperature of 25° C. Chemical treatment was started 2 weeks after seeding. More specifically, on the 10th, 12th, 14th, and 16th days after seeding, 50 mL of the plant growth regulator was added.
as §8
On the 28th day after seeding, the underground part weight was evaluated.

[7] = tested on: Arabidopsis thaliana (Col-0); assay: Evaluation Example 1: seed yield of Arabidopsis thaliana, hot water extraction products; details: EGT concentration 1 mM, harvested 89th day after seeding
Protocol: as §1
as §7, with “of 22°” for “of 25°”, “started 2” for “started 4”, “the 8th, 10th, 12th,” for “the 25th, 27th, 29th, 31st, 33rd, 35th,”, “and 14th” for “and 37th”
As the plant growth regulator, the hot water extraction product prepared in Production Example 1 was used. […]
On the 89th day after seeding, seeds were harvested, and the seed yield was evaluated.

[8] = tested on: Arabidopsis thaliana (Col-0); assay: Evaluation Example 7: Arabidopsis thaliana treated with Pseudozyma siamensis extracts from various extraction methods; details: EGT concentration 0.1 mM; 93rd day after seeding
Protocol: as §1, §2, §3
On the 93rd day after seeding, the plant height, the aboveground part weight, and the seed yield were evaluated.

[9] = harvested 95th day after seeding

C[N+](C)(C)[C@@H](Cc1c[nH]c(=S)[nH]1)C(=O)[O-] [EGT, ergothioneine]
Seed yield ratio to EGT [1]: 1.0
Seed yield ratio to untreated control [1]: 1.3
Plant height ratio to EGT ([2]; 95th day after seeding): 1.0
Plant height ratio to untreated control ([2]; 95th day after seeding): 1.1
Seed yield ratio to EGT [2, 9]: 1.0
Seed yield ratio to untreated control [2, 9]: 1.2
Rapeseed plant height ratio to EGT [3]: 1.0
Rapeseed plant height ratio to untreated control [3]: 1.1
Flower number ratio to EGT [4]: 1.0
Flower number ratio to untreated control [4]: 1.3
Wheat plant height ratio to EGT [5]: 1.0
Wheat plant height ratio to untreated control [5]: 1.1
Underground part weight ratio to EGT [6]: 1.0
Underground part weight ratio to untreated control [6]: 1.2
Seed yield ratio to EGT ([7]; compared with 1 mM EGT): 1.0
Seed yield ratio to untreated control ([7]; 50 mL on 8th, 10th, 12th, 14th days): 1.2
Aboveground part weight ratio to EGT [8]: 1.0
Aboveground part weight ratio to untreated control [8]: 1.1
Plant height ratio to EGT [8]: 1.0
Plant height ratio to untreated control [8]: 1.1
Seed yield ratio to EGT [8]: 1.0
Seed yield ratio to untreated control [8]: 1.3
